These are literature values, as cited in publication PMC7893915, “Assessing cross-resistance within the pyrethroids in terms of their interactions with key cytochrome P450 enzymes and resistance in vector populations” (Parasites & Vectors, 2021).

pIC50: −log10 of the molar value. Read-outs that look alike come from different tables or passages of the source.

For one series, the system named is CYP6M2. The conditions noted are these: read-out: IC50 CYP6M2, inhibition of diethoxyfluorescein metabolism, cited from earlier work.
The subject of the next series is CYP6P9a. The conditions noted are these: Incubation time 2h; mean ± SD; ref [38], [41]; cited from earlier work.
A further series deals with CYP6P2. The conditions noted are these: read-out: IC50 CYP6P2, inhibition of diethoxyfluorescein metabolism, cited from earlier work.
The test system of a further series is CYP6P3. The conditions noted are these: cited from earlier work.
For a further series, the system named is Gambiae Complex. To be noted: WHO Bioassay 1998, cited from earlier work.
The test system of a further series is Anopheles funestus. To be noted: F1, house resting indoors, WHO Bioassay 1998, cited from earlier work.
Setting [1] is: footnote b, ref Yunta et al. 2019[10].
Where [2] appears, read: read-out: IC50 CYP6P3, inhibition of diethoxyfluorescein metabolism, footnote b, ref Yunta et al. 2019[10].
Where [3] appears, read: ID 100127, F1, house resting indoors, 4/2010, VK6, Burkina Faso, ref Kwiatkowska RM et al. Gene. 2013;519(1):98-106.
[4] abbreviates: ID 100156, F0, larval collection, 5/2009-4/2010, Chano, Ethiopia, ref Massebo F et al. Parasites Vectors. 2013;6.
Setting [5] is: ID 200044, 4/2009-4/2010, Kalungama, Malawi, ref Wondji CS et al. Proc Natl Acad Sci U S A. 2012;109(47):19063-70.
Where [6] appears, read: ID 200045, 4/2009-4/2010, Chinkole, Malawi, ref Wondji CS et al. Proc Natl Acad Sci U S A. 2012;109(47):19063-70.
Where [7] appears, read: ID 200048, 3/2000-7/2002, Catembe, Mozambique, ref Casimiro S et al. J Med Entomol. 2006;43(2):267-75.
Where [8] appears, read: ID 100045, F0, larval collection, 7/2010-12/2010, Ahero Division, Kenya, ref Ochomo E et al. Med Vet Entomol. 2013;27(2):156-64.
Where [9] appears, read: ID 100117, F1, house resting indoors, 4/2010, VK2, Burkina Faso, ref Kwiatkowska RM et al. Gene. 2013;519(1):98-106.
[10] abbreviates: ID 100160, F0, larval collection, 10/2008-5/2009, Nkolondom, Cameroon, ref Nwane P et al. Parasites Vectors. 2013;6.
Setting [11] is: footnote a, ref Yunta et al. 2016[8].
[12] abbreviates: ID 200117, 4/2009-11/2009, Tororo, Uganda, ref Morgan JC et al. PLoS One. 2010;5(7).

One may read the pIC50 as the IC50 on a negative log10 scale, so that one unit is a factor of ten. Regarding `Cc1c(COC(=O)[C@@H]2[C@H](/C=C(\Cl)C(F)(F)F)C2(C)C)cccc1-c1ccccc1` (racemic) [Bifenthrin, bifenthrin], the pIC50 in the series on CYP6M2 (setting [1]) was 5.25; in the series on CYP6P2 (setting [1]), 4.97; with CYP6P3 (setting [2]) it was 5.46. In the series on CYP6P9a, the “% Insecticide depletion CYP6P9a” value was 53.4 ± 1.6%.
With `CC1(C)[C@H](C(=O)O[C@H](C#N)c2cccc(Oc3ccccc3)c2)[C@@H]1/C=C(\Cl)C(F)(F)F` (racemic) [λ-Cyhalothrin, λ-cyhalothrin], the mortality was 7.3 in the series on Gambiae Complex (setting [3]); 56 in the series with Gambiae Complex (setting [4]); 34.3 in the series with Anopheles funestus (setting [5]); 60 in the series with Anopheles funestus (setting [6]); 59.3 in the series on Anopheles funestus (setting [7]). In addition, the pIC50 in the series on CYP6M2 (setting [1]) was 5.18; in the series on CYP6P2 (setting [1]), 5.32; with CYP6P3 (setting [2]) it was 5.02. Moreover, the “% Insecticide depletion CYP6P9a” value with CYP6P9a was 67.1 ± 3.1%.
As to `CC1(C)[C@H](C(=O)O[C@H](C#N)c2cccc(Oc3ccccc3)c2)[C@@H]1C=C(Br)Br` [Deltamethrin, deltamethrin], the mortality with Gambiae Complex (setting [8]) is listed as 92.31; with Gambiae Complex (setting [9]), 37.2; with Gambiae Complex (setting [3]) it was 18.8; in the series with Gambiae Complex (setting [4]), 47; with Gambiae Complex (setting [10]), 95; in the series with Anopheles funestus (setting [5]), 51.2. In addition, the mortality with Anopheles funestus (setting [6]) is on record as 68.5; in the series on Anopheles funestus (setting [7]), 55.2; with Anopheles funestus (setting [12]), 39. Also, the pIC50 is 5.38 in the series with CYP6M2 (setting [11]); 5.30 in the series with CYP6P2 (setting [11]); 5.49 in the series with CYP6P3 (read-out: IC50 CYP6P3, inhibition of diethoxyfluorescein metabolism, footnote a, ref Yunta et al. 2016[8]).
With `CCOc1ccc(C(C)(C)COCc2cccc(Oc3ccccc3)c2)cc1` [Etofenprox, etofenprox], the pIC50 was 4.92 in the series on CYP6M2 (setting [1]), 5.33 with CYP6P2 (setting [1]) and 5.08 in the series with CYP6P3 (setting [2]). The “% Insecticide depletion CYP6P9a” value with CYP6P9a is 98.5 ± 0.2%.
Consider `CC1(C)C(C=C(Cl)Cl)C1C(=O)OCc1cccc(Oc2ccccc2)c1` (stereo not shown) [Permethrin, permethrin], for which the mortality with Gambiae Complex (setting [8]) is recorded as 91.97; with Gambiae Complex (setting [9]), 4.1; with Gambiae Complex (setting [3]) it was 3; in the series with Gambiae Complex (setting [10]) it was 95; in the series on Anopheles funestus (setting [5]) it was 67.4; in the series with Anopheles funestus (setting [7]), 100. In addition, the mortality with Anopheles funestus (setting [12]) is 69. Moreover, the results for the pIC50 in the series on CYP6M2 (setting [11]), in the series with CYP6P2 (setting [11]) and in the series with CYP6P3 were 5.09, 5.07 and 5.17, respectively. For the same compound, the “% Insecticide depletion CYP6P9a” value in the series on CYP6P9a was 87.8 ± 0.7%.
